Experiments:
[1] = tested on: Xenopus Opn4x L207^5.42F mutant; experiment: GsX GloSensor assay with Gsα/q11; type: cell-based; conditions: 16.7 μM AA92593, COS-1 cells
Description: (§1) Similar to human and mouse melanopsins (Fig. 5, F and H, I, M, and N), the introduction of a Phe residue at position 207^5.42 in Xenopus Opn4x and Chicken Opn4-1 increased their susceptibility of the melanopsins for AA92593 by ∼53% and ∼37%, respectively, although the substitutions reduced light-dependent cAMP responses by the melanopsins (Fig. 6, C and F, G and H). […]
(§2) For GloSensor assay, opsins, GloSensor assay sensor (coded by pGlo-22F), and NanoBiT-tagged G proteins were transiently expressed in COS-1 cells (kindly provided from Dr David Farrens, Oregon Health and Science University) using PEI as described previously ([24], [52]). […] For GFP-fluorescence microscopy, a 35-mm cell culture dish (IWAKI) was transfected with 2 μg melanopsin-GFP plasmid and 8 μg PEI in 400 μl Opti-mem and 1.2 ml D-MEM. […]
(§3) The transfected COS-1 cells were incubated at 37 °C, 5% CO2 for 2 days, and the medium was aspirated and exchanged with 50 μl of HBSS (145 mM NaCl, 10 mM D-glucose, 5 mM KCl, 1 mM MgCl2, 1.7 mM CaCl2, 1.5 mM NaHCO3, 10 mM Hepes, pH 7.4), containing 33.3, 20, 10, 2, 0.2, 0.02, 0.002, or 0 μM AA92593, 0.5% dimetyl sulfoxide (DMSO), and 4% (vol/vol) GloSensor cAMP reagent stock solution. […] Then, the cells were incubated at room temperature for 1 h, and luminescence changes were monitored. […] Luminescence was measured using GM-2000 or GM-3510 microplate reader (Promega). […]

[2] = tested on: chicken Opn4-1 L207^5.42F mutant; experiment: GsX GloSensor assay with Gsα/q11; type: cell-based; conditions: 16.7 μM AA92593, COS-1 cells
Description: as §1, §2, §3

Compound: COc1ccc(S(=O)(=O)N2CCCCC2)cc1C [AA92593]
- increase in susceptibility for AA92593 vs WT [1]: ~53%
- increase in susceptibility for AA92593 vs WT [2]: ~37%

Source: PMC12051620, “Molecular basis underlying the specificity of an antagonist AA92593 for mammalian melanopsins” (The Journal of Biological Chemistry, 2025)
